Data reported in PMC5695697 (Cell chemical biology, 2017).

Experiments:
[1] = tested on: H3K9 acetylation; test: H3K9 acetylation Western blot in human NPCs and neurons; assay type: cell-based; details: ACY-1215 5 μM, tubastatin A 10 μM, CI-994 10 μM, Cpd-60 5 μM (Figure S1)
[2] = tested on: PGRN protein; assay type: cell-based, human
[3] = tested on: MSR293 cells; test: GRN mRNA / PGRN expression in MSR293 cells; assay type: cell-based, human; details: MSR293 cells (HEK293 derivative), Figure S3
[4] = tested on: GRN mRNA; test: GRN mRNA expression by qPCR in human iPSC-derived NPCs and neurons; assay type: cell-based
[5] = tested on: FXN mRNA; test: FXN; assay type: cell-based, human; details: 18-day neurons, 24 h; SAHA 10 μM, CI-994 10 μM, Cpd-60 5 μM
[6] = tested on: H3K27 acetylation on GRN promoter; test: H3K27 acetylation ChIP-qPCR on GRN promoter/enhancer region in NPCs; assay type: cell-based, human; details: 24 hours, panobinostat 0.5 μM, CI-994 10 μM; for H3K27 acetylation in ChIP Region 3: to varying levels
[7] = tested on: HDAC; details: ref Schroeder et al., 2013; Chou et al., 2008; cited from earlier work
[8] = tested on: recombinant human Class I HDACs (HDAC1, HDAC2, HDAC3); test: In vitro HDAC enzymatic assay with varied pre-incubation time; assay type: biochemical; details: pre-incubation 0–3 hours, Figure S5
[9] = 2010, cited from earlier work
[10] = human NPCs, CI-994 for up to 72 hours
[11] = human neurons, CI-994 10 μM, 24 h

With `O=C(CCCCCCNC(=O)c1cnc(N(c2ccccc2)c2ccccc2)nc1)NO` [ACY-1215] as the compound, how does the H3K9 acetylation [1] read?
The H3K9 acetylation was “as strong of an induction”.

For `CC(=O)Nc1ccc(C(=O)Nc2ccccc2N)cc1` [CI-994], which “intracellular PGRN” value ([2]; NPCs, CI-994 10 μM, 24 h) is on record?
Its value is “decrease”.

What about the “secreted PGRN” value ([2]; NPCs, CI-994 10 μM, 24 h) of the same compound?
The value was “decrease”.

And the “PGRN secreted protein expression, longer treatment times” value ([2]; NPCs, CI-994 10 μM, longer treatment times, vs vehicle)?
The value was “decreased”.

And the “PGRN protein levels, extended treatment” value [2, 10]?
Its value is “did not significnatly enhance”.

And the “intracellular PGRN protein” value [2, 11]?
The value was “statistically significant decrease”.

And the “upregulating GRN mRNA or PGRN” value [3]?
The value was “ineffective”.

What about the “GRN mRNA levels, extended treatment” value [4, 10] of the same compound?
Its value is “did not significnatly enhance”.

And the “GRN mRNA” value [4, 11]?
The value was “statistically significant decrease”.

What about the “FXN (frataxin) mRNA levels” value [5] of the same compound?
Its value is “significantly increased”.

What about the “H3K27 acetylation in ChIP Region 2” value [6] of the same compound?
Its value is “Neither compound treatment increased”.

And the “H3K27 acetylation in ChIP Region 3” value [6]?
Its value is “increased”.

What about the H3K9 acetylation [1] of the same compound?
Its H3K9 acetylation is “significantly increase”.

What about the “binding kinetics, mechanism of action” value [7] of the same compound?
Its value is “slow-on/slow-off”.

And the “change of potency with prolonged incubation (in vitro kinetic profile)” value (from here on “change of potency”) [8]?
The value was “slow-binder”.

With `O=C(CCCCCCC(=O)Nc1ccccc1)NO` [SAHA] as the compound, how does the “upregulating GRN mRNA or PGRN” value [3] read?
Its value is “effective”.

What about the “FXN (frataxin) mRNA levels” value [5] of the same compound?
Its value is “does not”.

With `O=C(NCC1(c2nc(-c3ccccc3)cs2)CCOCC1)c1cccc(-c2noc(C(F)(F)F)n2)c1` [TMP269] as the compound, how does the “increasing GRN mRNA in NPCs” value ([4]; NPCs only (Figure S2)) read?
The value was “not effective”.

With `CN1CCc2c(c3ccccc3n2Cc2ccc(C(=O)NO)cc2)C1` [Tubastatin A] as the compound, how does the H3K9 acetylation [1] read?
Its H3K9 acetylation is “robust effect”.

For `CCC(=O)CCCCC[C@@H]1NC(=O)[C@H]2CCCCN2C(=O)[C@H]([C@@H](C)CC)NC(=O)[C@H](Cc2cn(OC)c3ccccc23)NC1=O` [apicidin], which “change of potency” value [8] is on record?
Its value is “did not increase”.

For `Cc1[nH]c2ccccc2c1CCNCc1ccc(/C=C/C(=O)NO)cc1` [panobinostat], which “H3K27 acetylation in ChIP Region 1 on the GRN promoter” value [6] is on record?
Its value is “significantly increased”.

And the “H3K27 acetylation in ChIP Region 2” value [6]?
Its value is “Neither compound treatment increased”.

And the “H3K27 acetylation in ChIP Region 3” value [6]?
Its value is “increased”.

For `CCCC(CCC)C(=O)O` [valproate, valproic acid], which serum concentration ([9]; chronic treatment, ref Kalu) is on record?
Its serum concentration is 300 to 700 µM.

And the Cmax ([9]; read-out: brain concentration Cmax, estimated, ref Goldenberg)?
Its Cmax is 400 µM.

What about the “increase of PGRN protein expression compared to vehicle” value ([2]; cultured NPCs and neurons, valproate at doses lower than 1 mM (Figure S8)) of the same compound?
The value was 1.3–1.5 ×.

What about the “change of potency” value [8] of the same compound?
Its value is “did not increase”.
